Source: PMC5506043, “Inhibitory effects of local anesthetics on the proteasome and their biological actions” (Scientific Reports, 2017)
Like-named read-outs stand apart in the source and are kept apart here. Where a SMILES comes first, the peptide text is derived from it. The star is where a group is joined. Cbz = O=C(OCc1ccccc1)*

Key:
20S proteasome [1] = target: T1, 20S proteasome (Homo sapiens, UniProt P28074+P49721); assay: 20S proteasome activity (chymotrypsin-like, Suc-Leu-Leu-Val-Tyr-MCA substrate); type: biochemical; details: for IC50: 37 °C, 1 h
T1 construct: purchased Calbiochem
Protocol: 20S Proteasome activity was assessed by fluorescence of free AMC (7-Amino-4-methylcoumarin, excitation: 380 nm, emission: 460 nm) liberated from a substrate peptide (Suc-Leu-Leu-Val-Tyr-MCA). The reaction mixture contained the 20S proteasome (500 μg/ml), the substrate peptide (10 μM) and the indicated drugs in 25 mM HEPES, 0.5 mM EDTA, 0.03% SDS, pH 7.6. The mixture was incubated at 37 °C for 1 h. AMC fluorescence liberated in the absence of drugs was taken as the basal value (100%). The fluorescence liberated in the absence of SDS was taken as the background value (0%)[13]. Most of the activity assays were conducted using an assay kit (Calbiochem), but some were conducted in hand-made buffer solutions.
Concentration dependence of the effects of each drug on the stability of the short-lived protein and the 20S proteasome activity was fitted using the following equation: B%=Bmax·[Drug]^n/(IC50^n+[Drug]^n) where, B% represents the changes in expression of the short-lived protein and the 20S proteasome activity induced by drugs at a given concentration of the [drug], and Bmax represents the maximum attainable reduction. IC50 and n are the half-maximal inhibitory concentration and Hill coefficient, respectively.

20S proteasome [2] = target: T1, 20S proteasome; assay: [3H]-pilsicainide binding assay; details: displacement of [3H]-pilsicainide, 1 h, room temperature
Protocol: Commercially available 20S proteasome was purchased from Calbiochem. LAs and their derivatives at increasing concentrations (10^–8 to 10^–2 M) were incubated with [^3H]-pilsicainide for 1 h at room temperature in buffer containing 50 mM HEPES supplemented with 1% bovine serum albumin (pH 7.4). Following the reaction termination by addition of 100% […], the bound and unbound ligands were separated by centrifugation. Specific binding was defined as the difference between binding capacities in the pellet and supernatant.

p53 in MKN45 cells = assay: Endogenous p53 expression in MKN45 cells (Western blot); type: cell-based; details: 24 h
Protocol: Cell lysates were analyzed by Western blot analysis (a). Quantitative analysis of p53-FLAG stability using densitometry is shown in (b). Each point was expressed relative to the values in the absence of drugs (100%). […] Cell lysates were analyzed by Western blot analysis (c). Quantitative analysis of the protein level of endogenous p53 was conducted using densitometry (d).
(§1) The same amounts (10 μg) of protein were separated on SDS-PAGE and electro-transferred to a polyvinylidene difluoride membrane. Membranes were probed with antibodies against FLAG (1:1000, Cosmo Bio), GFP (1:1000, Molecular Probes), ubiquitin (1:1000, MBL) or β-actin (1:1000, Oncogene) and were developed using an ECL detection system. Immunoprecipitation was carried out in PBS/1% Triton X-100, 0.5% SDS, 0.25% sodium deoxycholate, 1 mM ethylenediaminetetraacetic acid (EDTA), and 10 μg/ml aprotinin, 10 μg/ml leupeptine, 10 μg/ml pepstatin and 1 mM phenylmethylsulfonylfluoride for 2 h at 4 °C. Immune complexes were collected with protein G agarose (GE Healthcare Life Science) and bound proteins were analyzed by SDS-PAGE followed by immunoblotting.

p53-FLAG in COS7 cells = assay: p53-FLAG expression in transfected COS7 cells (Western blot); type: cell-based
Protocol: pcDNA3/p53-FLAG was a kind gift from Dr. Nakayama (Kyushu University). pcDNA3/Mdm2 (C438A) was a kind gift from Dr. Yasuda (Tokyo Pharmaceutical College). pCR/CMV/hH1 was a kind gift from Dr. Makita (Hokkaido University). COS7 cells were maintained in Dulbecco’s modified Eagle medium (Gibco BRL)/10% fetal bovine serum at 37 °C in a 5% CO2 incubator. Cells were transfected using lipofectamine (Gibco BRL) according to the instructions provided by the manufacturer. Forty-eight hours after transfection, cells were assayed. Proteasome inhibitors or LAs were applied 36 hours after transfection. All drugs except for MG132 were dissolved in culture medium or distilled water. MG132 was dissolved in dimethyl sulfoxide (DMSO). The final concentration of DMSO in the culture or reaction medium was equal to or less than 0.01% v/v. Pilsicainide was kindly provided by Daiichi Suntory Pharmaceutical Co., Ltd. (Osaka, Japan).
as §1

20S proteasome [3] = target: T1, 20S proteasome; parameters: method as in PMID 23026372; details: previously reported; cited from earlier work
MKN45 cells [4] = assay: Tumor growth of pretreated MKN45 cells transplanted into mice; type: in vivo; details: MKN45 cells pretreated with drug, transplanted into the intestine of SOD SKID mice
Kato III cells = assay: Proliferation of Kato III cells; type: cell-based; details: 24 h; pilsicainide 1 μM, lidocaine 20 μM; cells do not express p53
MKN45 cells [5] = assay: Proliferation of MKN45 cells (MTT assay); type: cell-based; details: 24 h, p53-expressing cells
From the text: Figure 4 Effects of LAs on cancer cells. (a) Effects of LAs on the proliferation of MKN45 cells. […] Proliferation of […] was estimated by MTT assays.

[6] = target: T2, wild-type 20S proteasome caspase-like activity (Saccharomyces cerevisiae, UniProt P38624); assay: Caspase-like activity of the wild-type 20S proteasome; type: biochemical
T2 construct: U.B. purified the yeast 20S proteasome and assayed proteasome activity; made in house; host or cells: yeast (purified from wild-type cells; inferred)

[7] = target: T3, wild-type 20S proteasome trypsin-like activity (Saccharomyces cerevisiae, UniProt P25043); assay: Trypsin-like activity of the wild-type 20S proteasome; type: biochemical
T3 construct: U.B. purified the yeast 20S proteasome and assayed proteasome activity; made in house; host or cells: yeast (purified from wild-type cells; inferred)

[8] = COS7 cells transfected with p53-FLAG
[9] = COS7 cells, dominant negative Mdm2 (C438A), 12 h, MG132 50 µM, pilsicainide 20 µM, lidocaine 1 mM

## O=C(CC12CCCN1CCC2)Nc1ccccc1F [2-F]
20S proteasome [1]; in vitro
  Effect on 20S proteasome activity (in words): partially inhibited
  IC50: 21.5 ± 46.8 µM

## O=C(CC12CCCN1CCC2)Nc1cccc(F)c1 [3-F]
20S proteasome [1]; in vitro
  Effect on 20S proteasome activity (in words): partially inhibited
  IC50: 20.5 ± 21.8 µM

## O=C(CC12CCCN1CCC2)Nc1ccc(F)cc1 [4-F]
20S proteasome [2]
  Kd: 20 ± 3.2 µM
20S proteasome [1]; in vitro
  Effect on 20S proteasome activity (in words): partially inhibited
p53 in MKN45 cells
  Endogenous p53 protein level (in words): increased p53 a little
p53-FLAG in COS7 cells; [8]
  Expression of p53-FLAG protein (in words): partially increased

## Cc1cccc(CCN2CCC(C(=O)c3ccc(NS(C)(=O)=O)cc3)CC2)n1 [E-4031]
20S proteasome [1]; in vitro
  Effect on 20S proteasome activity (in words): Neither the Ca^2+ channel blocker verapamil which contains two aromatic rings, nor the K^+ channel blocker E-4031, affected the activity

## CC(C)C[C@@H](C=O)NC(=O)[C@H](CC(C)C)NC(=O)[C@H](CC(C)C)NC(=O)OCc1ccccc1 [MG132] (Cbz-Leu-Leu-Leu-aldehyde)
p53-FLAG in COS7 cells
  Effect on p53-FLAG with co-expression of the C438A mutant of Mdm2 (in words): abolished the effects
  Expression of p53-FLAG protein (in words): increased the expression of p53-FLAG

## NC1=N[C@H](O)[C@H]2[C@H]3O[C@]4(O)O[C@@H]([C@@H](O)[C@@]2(N1)[C@@H]4O)[C@]3(O)CO [Tetrodotoxin]
20S proteasome [1]
  Effect on 20S proteasome activity (in words): did not inhibit 20S proteasome activity

## CCN(CC)CCCN(c1ccccc1)C1Cc2ccccc2C1 [aprindine]
20S proteasome [1]; in vitro
  Effect on 20S proteasome activity (in words): inhibit the 20S proteasome

## CC(C)COCC(CN(Cc1ccccc1)c1ccccc1)N1CCCC1 (stereo not drawn) [bepridil]
20S proteasome [3]
  Inhibitory action on the proteasome (in words): did not show the inhibitory action on the proteasome

## CCN(CC)CC(=O)Nc1c(C)cccc1C [lidocaine]
MKN45 cells [4]
  Tumor growth of transplanted MKN45 cells (in words): significantly decreased the proliferation of MKN45 cells
MKN45 cells [4]; listed as Lidocaine
  Tumor growth of transplanted MKN45 cells (in words): suppression of tumor growth
Kato III cells
  Suppression of proliferation of Kato III cells (in words): not observed
20S proteasome [2]
  Kd: 21.2 ± 3.5 µM
20S proteasome [1]; in vitro
  Effect on 20S proteasome activity (in words): inhibited 20S proteasome activity
p53 in MKN45 cells
  Endogenous p53 protein level (in words): increased the p53 protein level in MKN45 cells in a dose-dependent manner
p53-FLAG in COS7 cells; [8]
  Expression of p53-FLAG protein (in words): increased the expression of p53-FLAG
p53-FLAG in COS7 cells; [9]
  Effect on p53-FLAG with co-expression of the C438A mutant of Mdm2 (in words): abolished the effects
MKN45 cells [5]
  Proliferation of MKN45 cells (in words): suppressed proliferation of MKN45 cells in a dose-dependent manner

## Cc1cccc(C)c1OCC(C)N (stereo not drawn) [mexiletine]
20S proteasome [1]; in vitro
  Effect on 20S proteasome activity (in words): inhibit the 20S proteasome
  IC50: 14 ± 6.3 µM

## Cc1cccc(C)c1NC(=O)CC12CCCN1CCC2 [pilsicainide]
[6]
  Caspase-like activity inhibition (in words): not inhibited
Kato III cells
  Suppression of proliferation of Kato III cells (in words): not observed
[7]
  Trypsin-like activity inhibition (in words): not inhibited
20S proteasome [2]
  Kd: 1 ± 2.8 µM
20S proteasome [1]; in vitro
  Effect on 20S proteasome activity (in words): inhibited 20S proteasome activity
  IC50: 3.5 ± 1.5 µM
p53 in MKN45 cells
  Endogenous p53 protein level (in words): increased the p53 protein level in MKN45 cells in a dose-dependent manner
p53-FLAG in COS7 cells; [8]
  Expression of p53-FLAG protein (in words): increased the expression of p53-FLAG
p53-FLAG in COS7 cells; [9]
  Effect on p53-FLAG with co-expression of the C438A mutant of Mdm2 (in words): abolished the effects
MKN45 cells [5]
  Proliferation of MKN45 cells (in words): suppressed proliferation of MKN45 cells in a dose-dependent manner

## COc1ccc(CCN(C)CCCC(C#N)(c2ccc(OC)c(OC)c2)C(C)C)cc1OC (stereo not drawn) [verapamil]
20S proteasome [1]
  Effect on 20S proteasome activity (in words): Neither the Ca^2+ channel blocker verapamil which contains two aromatic rings, nor the K^+ channel blocker E-4031, affected the activity
